Results as given in the OligoGym collection.
After the bases stand the sugars from the 5' end (letter, count) and the backbone: PS all phosphorothioate, else s phosphorothioate and o phosphodiester by linkage. Methylation of C is not given here. e = 2'-O-(2-methoxyethyl) (MOE); k = constrained ethyl (cEt); d = 2'-deoxy (DNA); m = 2'-O-methyl

Target: HSD17B13
Conditions: ASO, HepaRG

Sequence	target mRNA inhibition (1 µM)	also measured
TTTTTGGACAAATGCC (sugars k3 d10 k3, PS)	50%	
TTGGAATGCTACTTGA (sugars k3 d10 k3, PS)	72%	target mRNA inhibition (0.02 µM): 20%; target mRNA inhibition (0.078 µM): 33%; target mRNA inhibition (0.313 µM): 47%; target mRNA inhibition (1.25 µM): 80%; target mRNA inhibition (5 µM): 83%
TCATAGTGGACTTCAT (sugars k3 d1 m1 d8 k3, PS)	44%	
GATTGAGTTCTCCACT (sugars k3 d10 k3, PS)	45%	
GTAAATTGAATAGCCA (sugars k3 d10 k3, PS)	55%	
CTCTAATGTTTCTTGA (sugars k3 d10 k3, PS)	53%	
AGATTTACTTCCTTGT (sugars k3 d10 k3, PS)	41%	
GTTTCTTATGTAATAG (sugars k3 d10 k3, PS)	46%	
AATCCCAACCAAACTT (sugars k3 d10 k3, PS)	23%	
TATCAGAAACTTATAC (sugars k3 d10 k3, PS)	0%	
AGCTTAAACTCCAATG (sugars k3 d10 k3, PS)	40%	
AGTAATTGCTATAGTA (sugars k3 d10 k3, PS)	48%	
ATCTTAAGATACCCAG (sugars kkdddddddddkekek, PS)	45%	
GTTTCTAGGTCAGTAG (sugars k3 d10 k3, PS)	73%	
TCTAAACATCTCTGGG (sugars k3 d10 k3, PS)	40%	
TCGGCACTCAGCTGCA (sugars k3 d10 k3, PS)	52%	
GAAACTTGATCTCTTA (sugars k3 d1 m1 d8 k3, PS)	59%	
CAATTTATTTGCTGGT (sugars k3 d10 k3, PS)	31%	
TTTTTAAGAGGCATGA (sugars k3 d10 k3, PS)	60%	
TGTTGATATTCTGTGG (sugars kkdddddddddkekek, PS)	54%	
TTTCATATCCAGTAGG (sugars k3 d10 k3, PS)	36%	
CATCTCTGGGACCAAG (sugars kkdddddddddkekek, PS)	44%	
CTAAAATTGTCTAAAC (sugars kkdddddddddkekek, PS)	19%	
CACTAAAGGTTTCTGT (sugars k3 d10 k3, PS)	56%	
GTCACCTTTCATAATG (sugars kkdddddddddkekek, PS)	4%	
CTGATTTAGAGAGCGA (sugars k3 d10 k3, PS)	61%	

Sequence	target mRNA inhibition (1 µM)	also measured
TAGCAAGCCAACAGAG (sugars k3 d10 k3, PS)	21%	
CTTGACTAAGGAGCTA (sugars k3 d10 k3, PS)	24%	
ACGATTGTTACATCAC (sugars k3 d10 k3, PS)	53%	
GAGGATAGTCCATGCA (sugars k3 d10 k3, PS)	59%	
ACAGAGGAGTTTGCAG (sugars k3 d10 k3, PS)	37%	
TGTTGACCTCAAATGT (sugars k3 d10 k3, PS)	14%	
GTTATTAGAAGTCAGC (sugars k3 d10 k3, PS)	56%	
GTATGTTTATGTAAGC (sugars kkdddddddddkekek, PS)	72%	target mRNA inhibition (0.02 µM): 11%; target mRNA inhibition (0.078 µM): 27%; target mRNA inhibition (0.313 µM): 53%; target mRNA inhibition (1.25 µM): 63%; target mRNA inhibition (5 µM): 68%
TCTATTGATTGGCTTA (sugars k3 d10 k3, PS)	39%	
GCATTAAAACTCTCAT (sugars k3 d10 k3, PS)	35%	
AAGACTTTGAGACTCT (sugars k3 d10 k3, PS)	62%	
ATCAATTTATCATACC (sugars k3 d10 k3, PS)	11%	
GTAATAGGCAGTAAAG (sugars k3 d10 k3, PS)	77%	
AGGCACTAAAGGTTTC (sugars k3 d10 k3, PS)	61%	
GCTTTTGTCCACCTTT (sugars kkdddddddddkekek, PS)	75%	target mRNA inhibition (0.02 µM): 28%; target mRNA inhibition (0.078 µM): 25%; target mRNA inhibition (0.313 µM): 45%; target mRNA inhibition (1.25 µM): 81%; target mRNA inhibition (5 µM): 87%
GCATTGTAATCTTGAG (sugars k3 d10 k3, PS)	35%	
TATATAACATGGCTGG (sugars k3 d10 k3, PS)	8%	
ACATUAGCAAGCTAAG (sugars k3 d1 m1 d8 k3, PS)	23%	
TCTGGGACCAAGGATA (sugars k3 d9 k3 e1, PS)	57%	
CTCCATCATCGATGGA (sugars k3 d10 k3, PS)	0%	
CATAACTACTTCAGTT (sugars k3 d10 k3, PS)	3%	
GTTTCTTATGTAATAG (sugars kkdddddddddkekek, PS)	21%	
GTTGAGATAAAGCTGC (sugars k3 d9 k3 e1, PS)	59%	
CTAAGTAGTAATTCTA (sugars k3 d10 k3, PS)	35%	
CTGCCCTAGATTCTAC (sugars k3 d10 k3, PS)	33%	
AAGTTTTTAAGAGGCA (sugars k3 d10 k3, PS)	77%	target mRNA inhibition (0.02 µM): 0%; target mRNA inhibition (0.078 µM): 0%; target mRNA inhibition (0.313 µM): 43%; target mRNA inhibition (1.25 µM): 73%; target mRNA inhibition (5 µM): 96%

Sequence	target mRNA inhibition (1 µM)	also measured
GATGCTAAAAGCTCAC (sugars k3 d10 k3, PS)	46%	
GTGTUCTTGTTGATAT (sugars k3 d1 m1 d8 k3, PS)	52%	
TAGGATTAATTCCCTT (sugars k3 d10 k3, PS)	0%	
TTAAACCTTCCCTGTG (sugars k3 d9 k3 e1, PS)	18%	
CTCTTTTTATAGACTG (sugars k3 d10 k3, PS)	63%	
TTGTACCCTGTTCTCA (sugars k3 d10 k3, PS)	64%	
TAAAAATTGGCCTCCT (sugars k3 d10 k3, PS)	29%	
ATACATTAGCAAGCTA (sugars kkdddddddddkekek, PS)	22%	
CCCAAGCTACCTCCAA (sugars k3 d10 k3, PS)	15%	
GGTCCACTTTTGGTGG (sugars k3 d10 k3, PS)	13%	
TCCATTGAATCTTCAA (sugars k3 d10 k3, PS)	57%	
GGATACCTGAAAAGCC (sugars k3 d10 k3, PS)	68%	target mRNA inhibition (0.02 µM): 2%; target mRNA inhibition (0.078 µM): 0%; target mRNA inhibition (0.313 µM): 38%; target mRNA inhibition (1.25 µM): 69%; target mRNA inhibition (5 µM): 77%
CTAGUGCCAAACCAAT (sugars k3 d1 m1 d8 k3, PS)	45%	
TTGTAATCTTGAGGCA (sugars k3 d10 k3, PS)	27%	
TCTAAACATCTCTGGG (sugars k3 d1 m1 d8 k3, PS)	36%	
TATACTGTCCCAGCAT (sugars k3 d10 k3, PS)	40%	
GCTAGGGAAATCTTTC (sugars k3 d10 k3, PS)	66%	
ATGCATTAAAACTCTC (sugars k3 d10 k3, PS)	12%	
TTATGTGATTGAGTTC (sugars k3 d1 m1 d8 k3, PS)	35%	
GAACAATCTCCCCAGC (sugars k3 d10 k3, PS)	63%	
TATGAGTAAAGATCTA (sugars k3 d10 k3, PS)	10%	
ATAAAAATTGGCCTCC (sugars k3 d10 k3, PS)	41%	
CATGAAGATTAGTTAA (sugars k3 d10 k3, PS)	11%	
CCCTTTATGTCTTTGG (sugars k3 d10 k3, PS)	35%	
AATCACAAGTAAGGTA (sugars kkdddddddddkekek, PS)	59%	
CTGTAGGTTTTGCTTC (sugars k3 d10 k3, PS)	27%	

Sequence	target mRNA inhibition (1 µM)	also measured
ACATCTCTGGGACCAA (sugars kkdddddddddkekek, PS)	67%	
GACTACATTAACACCA (sugars k3 d10 k3, PS)	58%	
ATGGTAAGCCCCATGC (sugars k3 d10 k3, PS)	22%	
AGATTGGAATGCTACT (sugars k3 d10 k3, PS)	63%	
TCAAGACATTCTAGCC (sugars k3 d10 k3, PS)	79%	
ATAACTACAAGAGGTT (sugars kkdddddddddkekek, PS)	46%	
ATTATGAGGATCTGGA (sugars k3 d10 k3, PS)	49%	
CTGATTAATCTTGATG (sugars k3 d10 k3, PS)	32%	
TAAGAGTCAGTATCCT (sugars k3 d10 k3, PS)	52%	
AAGATTAGTTAACCTT (sugars k3 d10 k3, PS)	24%	
TATATGAGGTCTGTAT (sugars k3 d10 k3, PS)	42%	
AGTCGGATTATTTTTT (sugars k3 d10 k3, PS)	42%	
AAAATGGTGGCGAGGC (sugars k3 d10 k3, PS)	0%	
AGGTAGCTAATGTATG (sugars k3 d10 k3, PS)	53%	
ATGTTATCTCAAGTCA (sugars k3 d10 k3, PS)	79%	
TATAGACTGGGTAGGA (sugars k3 d1 m1 d8 k3, PS)	30%	
CTTGAACAGTCTTAAA (sugars k3 d9 k3 e1, PS)	43%	
CTATCTCCCTATTTGT (sugars k3 d10 k3, PS)	15%	
TGGTGGACTTCAGAGT (sugars k3 d10 k3, PS)	17%	
GAGTATTTCCTCTGGG (sugars k3 d10 k3, PS)	23%	
CTTGACAATGGTTGAT (sugars k3 d10 k3, PS)	54%	
CTAGATACTCAATTTA (sugars k3 d10 k3, PS)	30%	
CAGCATTGATTCGAAA (sugars k3 d1 m1 d8 k3, PS)	37%	
